We go through 1 compound from patent publication US8957106B2, “Iminosugar treatment of tumors” (The Chancellor, Masters and Scholars of the University of …, priority 2007, dated 2015).

Assay [1] concerns MNT-1 melanoma cells. As to the kind of experiment: MTS cell viability assay, MNT-1. It is filed as cell-based. The following applies: Homo sapiens, MNT-1, 24 h, read-out: IC50 (concentration reducing number of viable cells by 50%). As to the method: Cells were cultured at indicated densities for 24 h, medium was removed and the incubation was continued in a fresh culture medium containing various GC2 or DTIC concentrations. In control experiments, cells were grown in a culture medium containing GC2 buffer.
The standard […] (MTS)-3-(4,5-dimethylthiazol-2-yl)-5-(3-carboxymethoxyphenyl)-2-(4-sulphophenyl)-2H-tetrazolium inner salt solution assay was performed in order to examine the cytotoxic/cytostatic effect of GC2 on melanoma cells. Briefly, 7.5×10^3 cells were seeded in 96-well microtiter plates (Nunc). After an overnight incubation, serial dilutions of GC2 or DTIC were added in triplicate to a final volume of 100 μl. The blank was represented by a culture medium without cells containing the highest GC2 or DTIC concentration. After 24 h of incubation 20 μl MTS was added to each well and all samples were incubated for 3 h at 37° C. An absorbance of each well was read at 450 nm in a microplate reader. A percentage of cell viability was calculated considering that 100% cell viability was represented by an absorbance of untreated samples […]. Alternatively, the number of viable cells was determined by Trypan blue exclusion test. Melanoma cells treated with GC2 were trypsinized and cells negative for blue staining (viable cells) were counted using a hemocytometer. […]

Assay [2] has as its system MelJuSo cells. As to the kind of experiment: Cell cycle distribution analysis (PI, flow cytometry), MelJuSo. It is filed as cell-based, human. The following applies: 6 μM, 24 h. As to the method:
Cell cycle analysis in melanoma cells treated with GC2 was performed by determining DNA content using propidium iodide (PI) staining. PI intercalates into the major groove of double stranded DNA and produces a highly fluorescent adduct that can be excited at 488 nm and with a broad emission centered at 600 nm, see e.g. Krishan A. J. Cell. Biol. 66, 188, 1975. Melanoma cells (20×10^4) were cultured in 25 cm^2 tissue culture flasks for 24 h, followed by a further incubation for indicated time periods with 6 μM GC2. After treatment, adherent cells were trypsinized and a number of viable cells was determined by trypan blue exclusion. […] cells were re-suspended in 200 μl FACS buffer (2% FCS in PBS) and fixed with 600 μl absolute methanol, dropwise added under gentle vortexing, for at least 2 h at −20° C. Fixed cells were washed with FACS buffer, centrifuged for 5 min at 1500 rpm, at 4° C., and incubated for 30 min, in the dark, at room temperature (RT) with 200 μl PI staining solution in 3.8 mM sodium citrate (10 μl RNaze 10 μg/ml previously boiled for 5 min and 1 μl PI 10 mg/ml). The staining solution was removed by centrifugation and the cell pellet was re-suspended in 200 μl FACS buffer. Samples were analyzed for DNA content using a FACScan™ using CellQuest™ software (Becton Dickinson, San Jose, Calif.). […]

Consider `CC(=O)O.CCCCCCCCCN1[C@@H](CO)[C@@H](O)[C@H](O)[C@@H]1CCCCCCCC` [GC2, (2S,3R,4R,5S)-3,4-dihydroxy-N-nonyl-5-octyl-2 hydroxymethylpyrrolidinium acetate], for which the IC50 in assay [1] was 7 to 8 µM. The “number of cells in G2 phase” value in assay [2] (untreated 17.7%) is on record as 8.48%. Also, in assay [2] (untreated 51.20%), the “proportion of surviving cells in G0/G1 phase” value came to 60.00%.
